Results on five compounds are retold here after publication PMC9960778, “Polymer-Antimicrobial Peptide Constructs with Tailored Drug-Release Behavior” (Pharmaceutics, 2023).

Values after ≈ are worked out from the molar mass of the structure shown. Starred links: 1 amine or outer side, 2 acyl side, 3 side chain; linkers in the order of their positions; H or OH if unused. Non-standard residues stand in square brackets, D forms with d. Residues, ends and D or L forms follow the SMILES beside them. No end group written: not given here. *: point of attachment. X1 = N=c1ccc2c(-c3ccccc3C(=O)*)c3ccc(N)c(S(=O)(=O)O)c3oc-2c1S(=O)(=O)O; NMeGABA = CN(CCCC(=O)[*:2])[*:1]

Series [1] has as its system Acinetobacter baumanii (CCM 2355). Format: cell-based. The conditions noted are these: A. baumanii (Gram-negative); Mueller-Hinton broth/PBS 1:1, 35 °C, OD 625 nm every 60 min for 20 h; MIC as molar concentration of PEP; mean of at least three independent experiments. The protocol: (§1) The antibacterial properties of HPMA-PEP constructs were tested against Acinetobacter baumanii (CCM 2355), Escherichia coli (CCM 4517), Staphylococcus epidermidis (CCM 2124), and Staphylococcus aureus (CCM 4516) (Czech Collection of Microorganisms, Brno, Czech Republic) in vitro. A single colony of the test microorganism was transferred into 5 mL of sterile broth (Luria-Bertani medium, Sigma) and cultivated overnight at 37 °C to prepare a bacterial test suspension in a double-concentrated Mueller-Hinton broth at a density equivalent to a 0.5 McFarland standard. Desired weight of lyophilized PEP or polymer-PEP was resuspended in sterile PBS and a concentration series was prepared. The bacterial suspension was then mixed with different concentrations of the PEP or polymer-PEP construct diluted in 1:1 in PBS and cultured at 35 °C. The bacterial growth was measured spectrophotometrically at 625 nm every 60 min for 20 h using an EON microplate spectrophotometer (Agilent Technologies, Santa Clara, CA, USA).
(§2) The MIC was determined as the lowest concentration of PEP or polymer-PEP construct without observable bacterial growth. MIC was calculated as the molar concentration of PEP. […] If the bacteria were absent after 24 h of incubation, it was termed MBC.

The subject of series [2] is Escherichia coli (CCM 4517). Format: cell-based. The conditions noted are these: E. coli (Gram-negative); Mueller-Hinton broth/PBS 1:1, 35 °C, OD 625 nm every 60 min for 20 h; MIC as molar concentration of PEP; mean of at least three independent experiments. The protocol:
as §1, §2

Series [3] deals with Staphylococcus epidermidis (CCM 2124). Format: cell-based. The conditions noted are these: S. epidermidis (Gram-positive); Mueller-Hinton broth/PBS 1:1, 35 °C, OD 625 nm every 60 min for 20 h; MIC as molar concentration of PEP; mean of at least three independent experiments. The procedure:
as §1, §2

In series [4] the test system is Staphylococcus aureus (CCM 4516). Format: cell-based. The following applies: S. aureus (Gram-positive); Mueller-Hinton broth/PBS 1:1, 35 °C, OD 625 nm every 60 min for 20 h; MIC as molar concentration of PEP; mean of at least three independent experiments. The procedure: as §1, §2
The test system of series [5] is E. coli. Put plainly: Fluorescent microscopy of labeled peptide/constructs with bacteria. The conditions noted are these: labeled sample added at amount corresponding to its MIC, spinning disc confocal, ex 488 nm, em 525 nm. Format: cell-based, Escherichia coli.
Experimental: The densities of the fresh overnight bacterial cultures were adjusted to the 0.5 McFarland standard, and 100 µL was placed in a sterile 96-well plate. The plates were incubated at room temperature for 2 h before the amount of fluorescently labeled F-PEP or F-P-PEP construct corresponding to its MIC was added to the appropriate wells. Images were captured immediately using a spinning disc confocal microscope (Andor xD revolution) on the Olympus IX81 platform and analyzed with iQ3 software, the excitation wavelength was 488 nm and the emission wavelength was 525 nm.
In series [6] the test system is S. aureus. The following applies: labeled sample added at amount corresponding to its MIC, spinning disc confocal, ex 488 nm, em 525 nm. The procedure: The densities of the fresh overnight bacterial cultures were adjusted to the 0.5 McFarland standard, and 100 µL was placed in a sterile 96-well plate. […] Images were captured immediately using a spinning disc confocal microscope (Andor xD revolution) on the Olympus IX81 platform and analyzed with iQ3 software, the excitation wavelength was 488 nm and the emission wavelength was 525 nm.

Another series deals with cathepsin B (Homo sapiens, UniProt P07858). Format: in vitro ADME. The procedure:
The enzymatic activity of cathepsin B was probed immediately before the release measurements as described previously. The enzymolysis was monitored by HPLC and the rate of PEP release was calculated from the area of the corresponding polymer peaks from the fluorescent detector (excitation 280 nm, emission 350 nm of Trp in PEP). The spontaneous hydrolysis and release of PEP were measured by HPLC in two different PBS buffers to mimic the bloodstream, pH 7.4 and pH 5.5, at 37 °C.

Series [7] deals with S. aureus. Put plainly: Transmission electron microscopy (TEM) of treated bacteria. Format: cell-based, Staphylococcus aureus. The conditions noted are these: 2×MIC, 2.5 h of incubation, negative staining. The procedure:
(§3) Bacteria in the exponential growth phase were mixed with the PEP or polymer-PEP constructs at a concentration equivalent to 2×MIC. After 2.5 h of incubation, 10 µL of the suspension was placed on a copper carbon-coated electron microscopic copper grid (Sigma Aldrich, Saint Louis, MO, USA) and left to adhere for 10 min. Then, the grid was washed twice with dH2O and stained with 0.8% sodium silicotungstate (Agar Scientific, Stansted, UK), pH 7.4, for 40 s. The samples were analyzed using a JEOL JEM-1010 instrument (JEOL Ltd., Tokyo, Japan) with an SIS MegaView III digital camera (Soft Imaging Systems) at acceleration voltage 80 kV and AnalySIS Software 2.0.

In series [8] the test system is E. coli. The series is described as above. The following applies: 2 × MIC, 2.5 h of incubation, negative staining. Format: cell-based, Escherichia coli. The protocol:
as §3

One may read the MIC as the lowest concentration that inhibits growth of the organism. Low values mean inhibition by little substance, high ones a need for much substance.

With `CC[C@H](C)[C@H](NC(=O)[C@H](CCCCN)NC(=O)[C@H](CCCCN)NC(=O)[C@H](CC(C)C)NC(=O)[C@H](CC(C)C)NC(=O)[C@H](CCCCN)NC(=O)[C@H](CCSC)NC(=O)[C@H](Cc1c[nH]c2ccccc12)NC(=O)[C@H](CCCCN)NC(=O)CNC(=O)CCCN(C)C(=O)c1ccccc1-c1c2ccc(=N)c(S(=O)(=O)O)c-2oc2c(S(=O)(=O)O)c(N)ccc12)C(=O)N[C@@H](CC(C)C)C(=O)N[C@@H](CCCCN)C(N)=O` [F-PEP] (X1-[NMeGABA]GKWMKLLKKILK-NH2), the MIC in series [1] is 36.5 µM (≈ 75.1 µg/mL); in series [2], 18.2 µM (≈ 37.4 µg/mL); in series [3], 29.2 µM (≈ 60.1 µg/mL); in [4], 72.9 µM (≈ 150 µg/mL). Moreover, the “Interaction / accumulation on bacterial cells (fluorescence microscopy)” value in the series on E. coli [5] was “accumulation of F-PEP and F-P-PEP on the bacterial cells”.
Turning to GKWMKLLKKILK-NH2 [PEP], the MIC in series [1] stood at 5 µM; in [2], 5 µM; in series [3], 3.4 µM; in series [4] it was 10 µM.
Consider “p(HPMA-co-Ma-β-Ala-ATTO-488-co-Ma-β-Ala-DBCO-azide-PEP) [F-P-PEP, fluorescently labeled non-cleavable polymer-PEP construct]”, for which the figures for the minimum inhibitory concentration (MIC) in series [1], in series [2] and in series [3] were 38.7 µM, 77.5 µM and 77.5 µM, respectively. Moreover, the “Interaction / accumulation on bacterial cells (fluorescence microscopy)” value is “considerably less F-P-PEP accumulated on S. aureus” in the series with S. aureus [6]; “accumulation of F-PEP and F-P-PEP on the bacterial cells” in the series with E. coli [5].
Take “p(HPMA-co-Ma-β-Ala-DBCO-ValCit-PEP) [P-ValCit-PEP, enzymatically cleavable polymer-PEP construct, ValCit spacer]”: the MIC in series [1] turned out to be 16.8 µM; in series [2], 134 µM. Besides, in the series with cathepsin B, the “PEP release in contact with cathepsin B” value is “not releasing the PEP”.
In the case of “p(HPMA-co-Ma-β-Ala-DBCO-azide-PEP) [P-PEP, non-cleavable polymer-PEP construct, control system]”, the minimal inhibitory concentration (MIC) in [1] was 9.3 µM; in [2] it was 74.1 µM; in series [3], 14.8 µM. For the same compound, the “Effect on bacterial cell morphology (TEM)” value was “induced cell morphological changes, cell wall disruption and leakage of the cytoplasm” with S. aureus [7]; “induced cell morphological changes” in the series on E. coli [8].
